Measurements taken from patent publication US11440918B2, “p38α mitogen-activated protein kinase inhibitors” (priority 2020, dated 2022).
pIC50, pKd: −log10 of the molar value.

Key:
[1] = tested on: SARS-CoV-2; test: microbe, parasite or virus in culture; assay type: cell-based; conditions: Severe acute respiratory syndrome coronavirus 2, read-out: IC50 for anti-SARS-CoVID-19 activity
[2] = target: p38β (Homo sapiens (Human), UniProt Q15759); test: Surface plasmon resonance (SPR) assay, Biacore T200
[3] = tested on: SARS-CoV-2 isolate BetaCoV/France/IDF0372/2020 (SARS-CoV-2 Paris); test: SARS-CoV-2 anti-viral assay Paris (viral genomes by RT-qPCR); assay type: cell-based; conditions: Severe acute respiratory syndrome coronavirus 2; SARS-CoV-2 Paris isolate, 48 hours
[4] = 10 μM
[5] = 10 μM; remark: listed apart in the source
[6] = tested on: SARS-CoV-2 isolate BetaCoV/France/IDF0372/2020 (SARS-CoV-2 Paris); test: Viral quantification via plaque assay in Paris; assay type: cell-based; conditions: Severe acute respiratory syndrome coronavirus 2
[7] = 10 μM; remark: listed apart in the source
[8] = tested on: SARS-CoV-2, isolate USA-WA1/2020 (SARS-CoV-2 New York); test: SARS-CoV-2 anti-viral assay New York (N-protein staining); assay type: cell-based; conditions: Severe acute respiratory syndrome coronavirus 2; SARS-CoV-2 New York isolate, 48 hours; read-out: Anti-Viral NY IC50

p38β, sequence (Q15759 whole entry): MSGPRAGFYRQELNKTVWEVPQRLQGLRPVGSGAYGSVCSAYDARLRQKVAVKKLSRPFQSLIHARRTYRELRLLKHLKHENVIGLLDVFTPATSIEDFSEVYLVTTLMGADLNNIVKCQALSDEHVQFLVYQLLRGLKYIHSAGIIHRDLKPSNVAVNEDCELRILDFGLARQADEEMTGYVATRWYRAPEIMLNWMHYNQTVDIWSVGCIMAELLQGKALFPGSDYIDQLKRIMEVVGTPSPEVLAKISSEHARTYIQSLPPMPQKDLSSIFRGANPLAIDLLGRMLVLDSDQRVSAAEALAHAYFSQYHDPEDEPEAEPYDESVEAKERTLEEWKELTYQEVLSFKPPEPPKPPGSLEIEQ

| SMILES | pIC50 [1] | pKd [2] | pIC50 [3] | stable in monkey plasma [4] | stable in human plasma [5] | pIC50 [6] | stable in rat plasma [7] | pIC50 [8] |
| --- | --- | --- | --- | --- | --- | --- | --- | --- |
| O=C(Nc1ccc(CN2CCCOCC2)cc1)c1ccc(Cl)cc1 [Compound 1, N-(4-((1,4-oxazepan-4-yl)methyl)phenyl)-4-chlorobenzamide] | > 5.00 | > 8.00 | 6.22 | at least 4 hours | at least 4 hours | 5.74 | at least 4 hours | 6.15 |
| O=C(Nc1ccc(CN2CC3(COC3)C2)cc1)c1ccc(Cl)cc1 [Compound 2, N-(4-((2-oxa-6-azaspiro[3.3]heptan-6-yl)methyl)phenyl)-4-chlorobenzamide] | > 5.00 |  | 5.11 |  |  |  |  | 5.92 |
| O=C(Nc1ccc(CN2CCOCC2)cc1)c1cnc(Cl)nc1 [Compound 3, 2-chloro-N-(4-(morpholinomethyl)phenyl)pyrimidine-5-carboxamide] | > 5.00 |  | 5.03 |  |  |  |  | 5.92 |
| O=C(Nc1ccc(CN2CC3(CCOCC3)C2)cc1)c1ccc(Cl)cc1 [Compound 4, N-(4-((7-oxa-2-azaspiro[3.5]nonan-2-yl)methyl)phenyl)-4-chlorobenzamide] | > 5.00 |  | 5.68 |  |  | 5.85 |  | 6.15 |
| O=C(Nc1ccc(CN2CCC3(CCCO3)C2)cc1)c1ccc(Cl)cc1 (stereo not drawn) [Compound 6, N-(4-((1-oxa-7-azaspiro[4.4]nonan-7-yl)methyl)phenyl)-4-chlorobenzamide] | > 5.00 | > 8.00 | 5.54 | at least 4 hours | at least 4 hours |  | at least 4 hours | 5.19 |
| C[C@H]1CN(Cc2ccc(NC(=O)c3ccc(Cl)cc3)cc2)C[C@H](C)O1 [Compound 8, 4-chloro-N-(4-(((2S,6S)-2,6-dimethylmorpholino)methyl)phenyl)benzamide] | > 5.00 | > 8.00 |  | at least 4 hours | at least 4 hours |  | at least 4 hours |  |
| O=C(Nc1ccc(CN2C[C@@H]3COC[C@@H](C3)C2)cc1)c1ccc(Cl)cc1 [Compound 9, N-(4-(((1R,5S)-3-oxa-7-azabicyclo[3.3.1]nonan-7-yl)methyl)phenyl)-4-chlorobenzamide] |  |  | 5.51 |  |  |  |  |  |
| O=C(Nc1ccc(CN2C[C@H]3COC[C@H]3C2)cc1)c1ccc(Cl)cc1 [Compound 10, 4-chloro-N-(4-(((3aR,6aS)-tetrahydro-1H-furo[3,4-c]pyrrol-5(3H)—1)methyl)phenyl)benzamide] |  |  | 5.89 | at least 4 hours | at least 4 hours | 5.55 | at least 4 hours | 6.70 |
| O=C(Nc1ccc(CN2CCC(O)CC2)cc1)c1ccc(Cl)cc1 [Compound 11, 4-chloro-N-(4-((4-hydroxypiperidin-1-yl)methyl)phenyl)benzamide] | > 5.00 |  | 5.80 |  |  | 5.68 |  | 6.70 |
| O=C(Nc1ccc(CN2CCC(O)C2)cc1)c1ccc(Cl)cc1 (stereo not drawn) [Compound 13, 4-chloro-N-(4-((3-hydroxypyrrolidin-1-yl)methyl)phenyl)benzamide] | > 5.00 |  | 5.47 |  |  |  |  |  |
| CC(=O)N1CCN(Cc2ccc(NC(=O)c3ccc(Cl)cc3)cc2)CC1 [Compound 14, N-(4-((4-acetylpiperazin-1-yl)methyl)phenyl)-4-chlorobenzamide] |  | > 8.00 |  | at least 4 hours | at least 4 hours |  | at least 4 hours |  |
| CN1CCN(Cc2ccc(NC(=O)c3ccc(Cl)cc3)cc2)CC1 [Compound 17, 4-chloro-N-(4-((4-methylpiperazin-1-yl)methyl)phenyl)benzamide] | > 5.00 |  | 5.44 |  |  | 5.57 |  | 6.15 |
